{"source": "patent US9363998B2", "about": "“Pesticidal composition and its use” (SUMITOMO CHEMICAL COMPANY, LIMITED, priority 2010, dated 2016)", "test_system": "Rhizoctonia solani", "assay": "Soybean seed treatment test in soil contaminated by Rhizoctonia solani (disease control efficacy)", "type": "in vivo, Rhizoctonia solani on soybean (variety: Natto shoryu)", "conditions": "carboxamide compound alone 0.2 g/100 kg of seeds, no thiodicarb, soybean cultivated 20 days in soil contaminated by Rhizoctonia solani, efficacy vs non-treated plot", "procedure": "A cyclohexanone solution (100 microL) containing prescribed amount (weight) of a test compound was applied on seeds of soybean (variety:Natto shoryu) (10 g) by using a rotary apparatus for seed treatment (Seed dresser, manufactured by Hans-Ulrich Hege GmbH).\nOne day after the application, plastic pot was filled with soil contaminated by Rhizoctonia solani, and the seeds treated with the test compounds were seeded in the soil and cultivated in a glass-greenhouse for 20 days (hereinafter referred to as “treated plot”).\nThereafter, the presence of disease caused by Rhizoctonia solani in the young plants which germinated from each seed was observed and disease severity was calculated according to the following calculation formula (1).\nOn the other hand, seeds of soybean which were not treated as above were cultivated in the same way as above (hereinafter referred to as “non-treated plot”) and the disease severity in “non-treated plot” was calculated in the same way as the above “treated plot”. On the basis of the above disease severity in “treated plot” and “non-treated plot”, efficacy in “treated plot” was evaluated according to the following calculation formula (2). […]"}
{"molecule": "CC1CC(C)(C)c2cccc(NC(=O)c3cn(C)nc3C(F)F)c21", "note": "(stereo not shown) [carboxamide compound (1)]", "values": [{"measurement": "efficacy (%)", "value": 47.4, "unit": "%"}]}
